Assay results as given in article PMC10484922, “Discovery of a selective and biologically active low-molecular weight antagonist of human interleukin-1β” (Nature Communications, 2023).
“And” between values parts separate entries of the source, which are not always exact repeats. Identical values can stand only once. Like-named read-outs stand apart in the source and are kept apart here.

Assays:
[1] = system: normal human dermal fibroblasts stimulated with hIL-1β; assay: Human fibroblast IL-6 release assay, hIL-1β stimulated; assay type: cell-based; design: IL-6, average / inhibition, replicates of EXP1, EXP2, EXP3 / inhibition, Mean / IL-1beta (mean, SD): mean readout (IL-6 release): unit not given here; conditions: for inhibition, Mean / inhibition, replicates of EXP1, EXP2, EXP3: Figure 3b; for Mean OD (OD 450nm) / IL-1beta (mean, SD): mean readout (IL-6 release): Figure 3c; for Mean OD (OD 450nm): compound 500 nM; for IL-1beta (mean, SD): mean readout (IL-6 release): compound @ 50uM; for IL-6, average / IL-6, curve fit: per experiment
Description: We used HEK-Blue™ IL-1β cells that respond specifically to IL-1 (# hkb-il1b, InvivoGen). These cells can detect IL-1α and IL-1β, as these cytokines bind to the same receptor, IL-1R1. They express a Seap reporter gene under the control of the IFN-β minimal promoter fused to five NF-kappaB and five AP-1 binding sites. Thirty microliters (300,000 cells/ml) per well of a 384-well plate were plated overnight. Cells were then stimulated with graded concentrations of cytokines (hIL-1α or hIL-1β) in the absence or presence of canakinumab (Ilaris®, ILARI LYVI 150MG 22GLW.012, batch U003 0409)[22], anakinra (Kineret®, 100 mg/0.67 ml injectable solution, Sobi)[23], or compound (S)-2 (compounds were pre-mixed for 1 h with the cytokine prior to addition to cells) and further incubated overnight before assessment of Seap activity.
Normal human dermal fibroblasts (NHDF) from Clonetics^TM (LONZA, Cat # CC-2509 (NHDF-Neo), Lot # 0000234242, used at passage ≤14) were seeded at a density of 5000 cells/well in 100 μL of culture medium using 96-well plates (flat bottom, TCT). Treatment with cytokines/compounds was performed as described above. Cells were incubated for another 6 h and were subsequently spun down (320g/3 min). IL-6 was measured in the supernatant by ELISA (BioLegend, # 430503) or HTRF (Cisbio, #62HIL06PEH).

[2] = biological target: IL-1β (Homo sapiens, UniProt P01584); assay: protein-observed 1H-13C-HMQC NMR binding (I/Io of Leu60 Cδ1H3); design: Mature hIL-1β was expressed in Escherichia coli; made in house; host or cells: Escherichia coli BL21 (DE3), pET17b; conditions: hIL-1β 50 µM, 500 µM compound
Sequence of IL-1β (P01584 117-269): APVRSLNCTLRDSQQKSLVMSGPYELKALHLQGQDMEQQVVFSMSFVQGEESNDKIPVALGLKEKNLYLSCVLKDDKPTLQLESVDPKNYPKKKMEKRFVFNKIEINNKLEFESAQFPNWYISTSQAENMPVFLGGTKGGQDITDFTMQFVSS

[3] = biological target: T1, IL-1α (Homo sapiens, UniProt P01583); assay: TR-FRET IL-1α/hIL-1R1 receptor displacement assay; assay type: biochemical; design: TR-FRET raw data: scale not given here
T1 sequence (P01583 113-271): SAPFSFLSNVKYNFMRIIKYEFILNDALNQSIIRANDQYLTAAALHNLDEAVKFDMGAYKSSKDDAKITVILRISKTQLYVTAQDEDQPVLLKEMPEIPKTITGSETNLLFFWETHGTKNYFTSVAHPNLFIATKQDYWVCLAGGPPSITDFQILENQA
Description: After 1 h incubation at room temperature, hIL-1R1 (1–332; Alexa 647 labeled; 50 nM final concentration) and anti-His-Europium W1024 (Perkin Elmer; Cat.No. AD0401, 1 nM final concentration) were added to a final volume of 10 μl per well. After 1 h of incubation at room temperature, time-resolved fluorescence was measured at λexc = 320 ± 20 nm, λem = 620 ± 25 nm/665 ± 25 nm using a Pherastar FSX plate reader. All experiments were run in triplicates. The data provided a typical saturation-binding curve, and the IC50 values were calculated by fitting the results to the Hill equation using Prism 7.0 and the in-house software Helios.

[4] = (S)-2 concentration 0.05 (unit not given)
[5] = (S)-2 concentration 0.4 (unit not given)
[6] = (S)-2 concentration 1 (unit not given)
[7] = (S)-2 concentration 4 (unit not given)
[8] = (S)-2 concentration 11 (unit not given)
[9] = (S)-2 concentration 33 (unit not given)
[10] = (S)-2 concentration 100 (unit not given)
[11] = Homo sapiens, Fibroblast, 6 h, human dermal fibroblasts, hIL-1β, 6 h, read-out: IL-6 release IC50
[12] = source data, read-out: IL-6 IC50, individual experiments
[13] = IL-1alpha, 0.01 uM, per experiment
[14] = IL-1alpha, 0.1 uM, per experiment
[15] = IL-1alpha, 0.2 uM, per experiment
[16] = IL-1alpha, 2 uM, per experiment
[17] = IL-1alpha, 63 uM, per experiment
[18] = IL-1alpha, 200 uM, per experiment

## Cc1ccc2c(c1)NC(=O)[C@@]2(c1cn[nH]c1)c1cc(-c2ccc(C(=O)O)cc2C(=O)O)ccc1O [Compound (S)-2]
[1]
  block of hIL-1β driven IL-6 release: could inhibit the response to hIL-1β
[1]; [4]
  inhibition, Mean: 11.8111
  inhibition, replicates of EXP1, EXP2, EXP3: 1.099 and 7.654 and 32.9874 and 11.239 and 6.325 and 15.536 and -5.489 and 15.493 and 21.4551
[1]; (S)-2 concentration 0.1 (unit not given)
  inhibition, replicates of EXP1, EXP2, EXP3: 18.345 and 33.8012 and 24.896 and 0.607 and 18.6036 and 23.695 and -10.879 and 23.6096
[1]; [5]
  inhibition, Mean: 16.1795
  inhibition, replicates of EXP1, EXP2, EXP3: 6.922 and -13.568 and 28.7773 and 15.933 and -2.853 and 20.6147 and 21.633 and -16.264 and 22.2291
[1]; [6]
  inhibition, Mean: 20.6552
  inhibition, replicates of EXP1, EXP2, EXP3: 28.445 and 6.394 and 37.2847 and 8.462 and 8.741 and 33.0478 and 30.776 and 11.643 and 21.1029
[1]; [7]
  inhibition, Mean: 41.6476
  inhibition, replicates of EXP1, EXP2, EXP3: 30.652 and 40.964 and 60.1425 and 37.001 and 32.643 and 49.8155 and 34.125 and 37.671 and 51.8132
[1]; [8]
  inhibition, Mean: 62.727
  inhibition, replicates of EXP1, EXP2, EXP3: 59.128 and 61.883 and 67.9669 and 57.955 and 65.648 and 69.7834 and 54.055 and 63.991 and 64.1355
[1]; [9]
  inhibition, Mean: 85.133
  inhibition, replicates of EXP1, EXP2, EXP3: 83.359 and 83.395 and 85.1881 and 82.704 and 84.749 and 90.3418 and 80.717 and 88.643 and 87.1001
[1]; [10]
  inhibition, Mean: 92.537
  inhibition, replicates of EXP1, EXP2, EXP3: 91.3 and 94.175 and 93.9868 and 93.148 and 93.985 and 90.8655 and 91.665 and 91.77 and 91.9373
[1]; hu IL-1b 0 pg/mL
  Mean OD (OD 450nm): 0.033
  IL-1beta (mean, SD): mean readout (IL-6 release): 0
[1]; hu IL-1b 40 pg/mL
  Mean OD (OD 450nm): 0.067
  IL-1beta (mean, SD): mean readout (IL-6 release): 0
[1]; hu IL-1b 80 pg/mL
  Mean OD (OD 450nm): 0.219
  IL-1beta (mean, SD): mean readout (IL-6 release): 866.8
[1]; hu IL-1b 120 pg/mL
  Mean OD (OD 450nm): 0.313
  IL-1beta (mean, SD): mean readout (IL-6 release): 1562
[1]; hu IL-1b 160 pg/mL
  Mean OD (OD 450nm): 0.45
  IL-1beta (mean, SD): mean readout (IL-6 release): 2574.8
[1]; hu IL-1b 200 pg/mL
  Mean OD (OD 450nm): 0.463
  IL-1beta (mean, SD): mean readout (IL-6 release): 2669.4
[1]; [11]
  IC50: 7.9 ± 2 µM
[1]; human dermal fibroblasts, hIL-1β, 6 h
  IL-6 release IC50: single digit micromolar range
[1]; [12]
  IC50: 18.8 µM and 26.2 µM and 7.43 µM and 6.22 µM and 5.77 µM and 5.73 µM and 4.59 µM and 7.91 µM and 8.11 µM and 5.61 µM and 6.38 µM
[2]
  I/Io (ratio of peak intensities of Leu60 Cδ1H3 in 1H-13C-HMQC spectra in presence and absence of ligand): <0.1
[3]
  inhibition of the IL-1R1/IL-1α interaction: did not observe inhibition of IL-1α
[3]; [13]
  TR-FRET calculated % inhibition: 3%
  TR-FRET raw data: 96 and 97
[3]; IL-1alpha, 0.01 uM, per experiment, read-out: TR-FRET calculated % inhibition
  inhibition at 0.01 µM: 4%
[3]; IL-1alpha, 0.02 uM, per experiment
  TR-FRET raw data: 96
[3]; IL-1alpha, 0.02 uM, per experiment, read-out: TR-FRET calculated % inhibition
  inhibition at 0.02 µM: 5%
[3]; [14]
  TR-FRET calculated % inhibition: 2%
  TR-FRET raw data: 96 and 98
[3]; IL-1alpha, 0.1 uM, per experiment, read-out: TR-FRET calculated % inhibition
  inhibition at 0.1 µM: 4%
[3]; [15]
  TR-FRET calculated % inhibition: 3%
  TR-FRET raw data: 95 and 97
[3]; IL-1alpha, 0.2 uM, per experiment, read-out: TR-FRET calculated % inhibition
  inhibition at 0.2 µM: 6%
[3]; IL-1alpha, 0.6 uM, per experiment
  TR-FRET raw data: 99 and 89
[3]; [16]
  TR-FRET calculated % inhibition: 2% and 11%
  TR-FRET raw data: 98 and 90
[3]; IL-1alpha, 6 uM, per experiment
  TR-FRET raw data: 87 and 97
[3]; IL-1alpha, 20 uM, per experiment
  TR-FRET raw data: 87 and 99
[3]; [17]
  TR-FRET calculated % inhibition: 8% and 2%
  TR-FRET raw data: 93 and 98
[3]; [18]
  TR-FRET calculated % inhibition: 7% and 1%
  TR-FRET raw data: 94 and 99
[3]; Il1a, read-out: TR-FRET IC50, individual experiments
  IC50: > 200 µM
[3]; read-out: TR-FRET IL-1α IC50
  IC50: > 200 µM

## O=C(O)c1ccccc1-c1ccc(O)c(C2(O)C(=O)Nc3cc(Cl)ccc32)c1 (stereo not shown) [Compound 11]
[1]; 99 uM
  IL-6, average: 38.1953 and 26.9144
  IL-6, curve fit: 38.6393 and 27.5847
[1]; 300 uM
  IL-6, average: 100.608 and 103.181
  IL-6, curve fit: 97.9064 and 99.9483
[1]; [11]
  IC50: 112 ± 1 µM
[1]; Homo sapiens, Fibroblast, source data, read-out: IL-6 IC50, individual experiments
  IC50: 111 µM
[1]; [12]
  IC50: 113 µM
[2]
  I/Io (ratio of peak intensities of Leu60 Cδ1H3 in 1H-13C-HMQC spectra in presence and absence of ligand): <0.1 (N = 1)
[3]; read-out: TR-FRET IL-1α IC50
  IC50: > 200 µM
